Assay results taken from patent US6413946B1, “Composition for treatment of diabetes and treatment of diabetes” (Meiji Seika Kaisha, Ltd., priority 1997, dated 2002).
“Also recorded” adds a separate entry of the source.

What was measured:
[1] = tested on: STZ diabetic rats; test: Biochemical tests of blood of STZ diabetic rats (Example 2); assay type: in vivo, Wistar rats; conditions: 320 mg/kg oral twice a day for 5 consecutive days
Description: To male Wistar 7-week-old rats (7 rats per group), which were intravenously administered with a single dose of 60 mg/kg of STZ and which were confirmed to have been made diabetic after the lapse of 1 week from the STZ administration, fosfomycin disodium salt or fosfomycin calcium salt (FOM-Ca) was orally administered at a dose of 320 mg/kg, twice a day for 5 consecutive days. Then, sample of the blood of each test rat was taken and subjected to the biochemical tests.

[2] = tested on: rats; test: Toxicity in rats at oral administration; assay type: in vivo
[3] = tested on: STZ diabetic rats; test: Biochemical tests of serum (blood) sample of STZ diabetic rats (Example 1); assay type: in vivo, Wistar rats; conditions: oral twice a day for 5 consecutive days, fosfomycin disodium salt 160 mg/kg, vanadyl sulfate 50 mg/kg, alone or combined
Description: In this Example, as animals to be tested, the STZ diabetic rats were prepared from normal Wistar rats having an average body weight of 250 g (male, 6 weeks of age). For this purpose, the normal Wistar rats were made diabetic by a single administration of a dose of 60 mg/kg of STZ intravenously. […]
(§1) The STZ diabetic rats as prepared and used in this Example are such those rats (7 weeks of age, 6 rats per group) which had received an intravenous administration of a single dose of 60 mg/kg of STZ and which were confirmed to have been made diabetic with their showing such symptom that their serum glucose level was not less than 400 (mg/dl), when measured by sampling their blood at 1 week lapse from the STZ administration.
One week after the intravenous administration of single dose 60 mg/kg of STZ, to the male 7-week-old Wistar rats (6 rats per group), which have been confirmed to have the symptoms of diabetes, were orally administered either one or both of vanadyl sulfate VOSO4 at a single dose of 50 mg/kg and fosfomycin disodium salt (abbreviated as FOM-Na) at a single dose of 160 mg/kg, twice a day for 5 consecutive days, by administration of the test compound(s) in the form of the aqueous solutions. The body weight, amounts (volumes) of feed taken, water taken and urine volume output of the rats under test were measured with lapse of time. […]

[4] = tested on: STZ diabetic rats; test: Biochemical test of urine sample of STZ diabetic rats (Example 1); assay type: in vivo, Wistar rats; conditions: oral twice a day for 5 consecutive days, VOSO4 50 mg/kg, FOM-Na 160 mg/kg
Description: (§2) In this Example, as animals to be tested, the STZ diabetic rats were prepared from normal Wistar rats having an average body weight of 250 g (male, 6 weeks of age). For this purpose, the normal Wistar rats were made diabetic by a single administration of a dose of 60 mg/kg of STZ intravenously. The normal Wistar rats (male) which are to be subjected to the STZ administration, when they were given 20 g/day of feed and 36 g/day of water, had have such body conditions that average values each of their urine volume output, serum glucose level, serum urea nitrogen level, serum creatinine level, serum total protein level and serum albumin level of the rats are amounting to 18 ml, 152 mg/dl, 18.0 mg/dl, 0.5 mg/dl, 5.63 g/dl and 4.2 g/dl, respectively.
as §1
(§3) One week after the intravenous administration of single dose 60 mg/kg of STZ, to the male 7-week-old Wistar rats (6 rats per group), which have been confirmed to have the symptoms of diabetes, were orally administered either one or both of vanadyl sulfate VOSO4 at a single dose of 50 mg/kg and fosfomycin disodium salt (abbreviated as FOM-Na) at a single dose of 160 mg/kg, twice a day for 5 consecutive days, by administration of the test compound(s) in the form of the aqueous solutions. The body weight, amounts (volumes) of feed taken, water taken and urine volume output of the rats under test were measured with lapse of time. Further, sampling of blood from the rats was effected at a time of 24 hours after the final administration of the compound(s) tested. Samplings of the urine from the rats were effected over 12 hours after the final administration of the compound(s) tested, and the blood sample and the urine samples as collected were subjected to the following biochemical tests.
(§4) In the biological tests of the blood sample above-mentioned, there were measured the serum glucose level, serum urea nitrogen level, serum creatinine level, serum total protein level and serum albumin level. In the biochemical tests of the urine sample, there were measured the collected amounts of the glucose, total protein and creatinine present in the urine. […] These rats for the comparative purpose were tested similarly to the above tests.

[5] = tested on: STZ diabetic rats; test: General observation of body conditions of STZ diabetic rats (Example 1); assay type: in vivo, Wistar rats; conditions: oral twice a day for 5 consecutive days, VOSO4 50 mg/kg, FOM-Na 160 mg/kg
Description: as §2, §1, §3, §4

[6] = tested on: Na,K-ATPase; conditions: cited from earlier work
[7] = tested on: STZ diabatic rats; conditions: aqueous saline solution as drinking water; 6th week after the administration; cited from earlier work

Row | Compound | Blood Glucose ([1]; Day 0) [mg/dL] | Blood Triglyceride ([1]; Day 0) [mg/d1] | Blood Albumin ([1]; Day 5) [g/dL] | Blood Creatinine ([1]; Day 5) [mg/dL] | Blood Glucose ([1]; Day 5) [mg/dL] | Blood Total protein ([1]; Day 5) [g/dL] | Blood Triglyceride ([1]; Day 5) [mg/d1] | Urine Creatinine ([4]; Day 0) [mg/12 hr] | Urine Glucose ([4]; Day 0) [g/12 hr] | Urine Total protein ([4]; Day 0) [g/12 hr] | Urine Creatinine ([4]; Day 5) [mg/12 hr] | Urine Glucose ([4]; Day 5) [g/12 hr] | Urine Total protein ([4]; Day 5) [g/12 hr] | Body weight ([5]; Day 0) [g] | Feed volume taken ([5]; Day 0) [g] | Urine volume output ([5]; Day 0) [mL] | Water volume taken ([5]; Day 0) [g] | Body weight ([5]; Day 5) [g] | Feed volume taken ([5]; Day 5) [g] | Urine volume output ([5]; Day 5) [mL] | further results
1 | C[C@@H]1O[C@@H]1P(=O)([O-])[O-].[Ca+2] [FOM-Ca, fosfomycin calcium salt] | 431 ± 5 | 178 ± 18 | 4.1 ± 0.1 | 0.51 ± 0.01 | 336 ± 23 | 5.37 ± 0.07 | 59 ± 7 | – | – | – | – | – | – | – | – | – | – | – | – | – | Effect on serum glucose level / symptoms of diabetes (in words) ([1]; listed as calcium salt, calcium salt): evidently ameliorate an unusually high serum glucose level; Effect on serum glucose level / symptoms of diabetes (in words) ([1]; listed as fosfomycin calcium salt, calcium salt): clearly ameliorate; LD50 ([2]; oral administration): ≥ 3500 mg/kg
2 | C[C@@H]1O[C@@H]1P(=O)([O-])[O-].[Na+].[Na+] [FOM-Na, fosfomycin disodium salt] | 432 ± 6 | 211 ± 30 | 4.0 ± 0.1 | 0.50 ± 0.00 | 345 ± 23 | 5.26 ± 0.06 | 65 ± 3 | 12.5 ± 0.7 | 9.2 ± 0.9 | 4.2 ± 1.1 | 12.5 ± 0.8 | 8.9 ± 1.3 | 5.6 ± 2.2 | 235 ± 4 | 36 ± 1 | 115 ± 5 | 153 ± 5 | 282 ± 3 | 37 ± 1 | 106 ± 7 | Effect on serum glucose level / symptoms of diabetes (in words) ([1]; disodium salt): evidently ameliorate an unusually high serum glucose level; also recorded: clearly ameliorate; Effect on serum glucose level (in words) ([3]; disodium salt): tendency to improve the serum glucose level; also recorded: action of lowering an unusually high serum glucose level; Water volume taken ([5]; Day 5): 142 ± 16 g
3 | O=S(=O)([O-])[O-].[O]=[V+2] [VOSO4, vanadyl sulfate] | – | – | – | – | – | – | – | 12.5 ± 1.8 | 9.1 ± 1.4 | 7.2 ± 8.2 | 12.1 ± 2.5 | 6.8 ± 3.2 | 3.9 ± 0.8 | 226 ± 8 | 35 ± 2 | 111 ± 10 | 140 ± 12 | 239 ± 9 | 29 ± 4 | 82 ± 21 | Effect on serum glucose level (in words) [3]: action of lowering an unusually high serum glucose level; Toxicity (in words) ([2]; oral administration of 50 mg/kg): no toxicity; Water volume taken ([5]; Day 5): 99 ± 24 g
4 | C[C@@H]1O[C@@H](O[C@H]2C[C@@H](O)[C@]3(CO)[C@H]4[C@H](O)C[C@]5(C)[C@@H](C6=CC(=O)OC6)CC[C@]5(O)[C@@H]4CC[C@]3(O)C2)[C@H](O)[C@H](O)[C@H]1O [ouabain] | – | – | – | – | – | – | – | – | – | – | – | – | – | – | – | – | – | – | – | – | Inhibition of Na,K-ATPase (in words) [6]: strong inhibitor
5 | [Na+].[Na+].[Na+].[O]=[V]([O-])([O-])[O-] [sodium orthovanadate] | – | – | – | – | – | – | – | – | – | – | – | – | – | – | – | – | – | – | – | – | Inhibition of Na,K-ATPase (in words) [6]: strongly inhibit
6 | sodium metavanadate | – | – | – | – | – | – | – | – | – | – | – | – | – | – | – | – | – | – | – | – | Serum glucose level (in words) [7]: returned to the normal level
